Data from patent US20080287396A1, “Phosphonated Fluoroquinolones, Antibacterial Analogs Thereof, and Methods for the Prevention and Treatment of Bone and Joint Infections” (TARGANTA THERAPEUTICA INC., priority 2005, published 2008).
Entries after “also recorded” stand apart in the source; their conditions may differ.

Assays:
Hela cells = assay: Cytotoxicity assay (MTS reduction); assay type: cell-based; details: concentrations up to 100 μM, 18 h, MTS reagent; data not shown
Method: Selected compounds were also tested for their ability to inhibit growth of mammalian cells so as to ascertain levels of cytotoxicity to the mammalian host, via an assay measuring the biological reduction of the inner salt of (3-(4,5-dimethylthiazol-2-yl)-5-(3-carboxymethoxyphenyl)-2-(4-sulfophenyl)-2H-tetrazolium (MTS reagent). Assays were performed in 96-well microtiter plates. Briefly, compounds at 100, 50, 25, and 12.5 μM concentrations were incubated with 2×10^4 Hela cells per well in Dulbecco's Modified Eagle Medium (Invitrogen Corporation) containing 1% Bovine Growth Serum (HyClone) for 18 h at 37° C. under 5% CO2.

[1] = Bone powder binding, fluorometric detection; details: for Binding to bone (%) Fluorescence: 1 mg/ml compound, bone meal powder 10 mg/ml in PBS, 37° C., 1 h; for binding to osseous matter, in words: bisphosphonates bearing three hydroxy groups
Method: The ability of the example molecules to bind to bone powder was established in two parallel fashions, using either LC/MS or fluorometric detection. For LC/MS detection, a stock solution (5 mM) of the compound to be tested was added to 0.1M Tris-HCl buffer pH 7, 0.15M NaCl to reach a final concentration of 100 μM. Triplicate samples (1 mL) of the compound solutions were intensively shaken for 10 min with or without 25 mg of fresh or 20 mg of vacuum dried ground rat tibia bone. The samples were then centrifuged for 15 min at 10 000 g. The presence of unbound compound was measured by injection of 30 μL of each of the supernatants into an Agilent 1100™ LC/UV system. For fluorometric detection, an individual compound was dissolved in PBS or water (compound 52) and resuspended at a concentration of 1 mg/ml in a slurry of bone meal powder (Now Foods, Bloomingdale, Ill., USA) in PBS at 10 mg/ml. The suspension of drug/prodrug in bone meal powder was incubated at 37° C. for 1 h to allow for binding, and centrifuged at 13 000 rpm for 2 min, before recovering the supernatant. The bone meal powder pellet was then washed three times with 1 ml of PBS. All supernatants were saved and assessed for fluoroquinolone content by fluorescence measurements at excitation/emission wavelengths of 280/465 nm. The amount of fluoroquinolone was determined from standard curves generated for each experiment. Amount of drug/prodrug bound to bone powder was deduced from the difference between the input amount (typically 1 mg) and the amount recovered in the supernatants after binding. In all binding experiments, >99% of input drug was recovered in the supernatant for the parent drugs.

[2] = Regeneration of drug from bone powder-bound prodrug; assay type: in vitro ADME; details: PBS vs serum
Method: Amounts of drug “regenerated” from the phosphonated parent prodrug were measured as follows. Washed bone powder-bound prodrugs from the above section were resuspended in 400 μL PBS or in 400 μL 50% (v/v in PBS) human or rat serum. […] Methanol (5× volume relative to supernatant) was added to each supernatant and the mixture was vortexed on a floor model vortex for 15 min to extract freed fluoroquinolone. The mixture was then centrifuged at 10 000 rpm for 15 min to pellet the insoluble material. The supernatant containing the extracted fluoroquinolone was recovered and evaporated to dryness in a speed vac. The dried pellets were resuspended in PBS and the amount of fluoroquinolone was determined by fluorescence measurements as described above. The percentage of drug regenerated was deduced from the difference between amount of bound prodrug and the amount of regenerated drug. The identity of regenerated drug was deduced by MIC determination; MICs of regenerated material matched those of parent drugs but not those of prodrugs.

S. aureus ATCC 13709 = assay: Prophylactic model of bone infection in rats; assay type: in vivo, rat; details: for Measured bacterial titer (Log CFU/g of bone) Test compound: 15 mg/kg IV, 2 days prior to infection; for prophylactic effect in rat model of bone infection, in words: Table 4 and FIGS. 6-8, doses as in Table 4
Method: To determine the activity in vivo of bisphosphonated prodrugs of fluoroquinolones, compounds 52 and 107, derivatives of parent compounds moxifloxacin 3 (for 52), and compounds 39, 44, 49, 54, 121, 129, 141, 145, 149, derivatives of parent compound gatifloxacin 15, were used in a prophylactic model for infection. Specifically, S. aureus ATCC 13709 cells were grown overnight at 37° C. in brain heart infusion broth (BHIB). Cells were subcultured into fresh BHIB and incubated for 4 to 5 h at 37° C. The cells were washed twice with phosphate-buffered saline (PBS) and resuspended in BHIB supplemented with 10% (vol./vol.) fetal bovine serum at a density of approximately 10^10 colony forming units (CFU)/ml (based upon turbidimetry). The suspension was aliquoted and a portion was used to check the CFU count. The culture was stored frozen (−80° C.) and was used without subculture. For use as an inoculum the culture was thawed, diluted in PBS and kept in an ice bath until it was used.
Animals were infected as described by O'Reilly et al. (Antimicrobial Agents and Chemotherapy (1992), 36(12): 2693-97) to generate the bone infection. Female CD rats (age, 57 to 70 days; n=5/group; Charles River, St-Constant, Canada) were anaesthetized by isofluorane before and during the surgery. Following complete induction of anesthesia, the rat was placed ventral side up and hair was shaved from the surgical site. The skin over the leg was cleaned and disinfected (proviodine-ethanol 70%). A longitudinal incision below the knee joint was made in the sagital plane. The incision was made over the bone below the “knee joint” (tibia head or condyle) but not completely extending to the ankle. A high speed drill fitted with a 2 mm bulb bit was used to drill a hole into the medullar cavity of the tibia. Rats were injected intra-tibially with 0.05 ml 5% sodium morrhuate (sclerosing agent) and then with 0.05 ml of S. aureus suspension (ca. 5×10^5 CFU/rat). The hole was sealed by applying a small amount of dry dental cement which immediately absorbs fluids and adheres to the site. The wound was closed using 3 metal skin clips. Moxifloxacin 3 (as a positive control) was injected once at 10 mg/kg intravenously 1 h postinfection in saline, while the fluoroquinolone prodrugs (prepared in 0.9% saline) were injected as a single intravenous bolus dose at different time points prior to the infection. For comparison, the parent drug (moxifloxacin 3 or gatifloxacin 15) was also injected intravenously once at a molar equivalent dose at the same time point prior the infection.
Infected rats were sacrificed by CO2 asphyxiation 24 h postinfection to monitor the bacterial CFU count. Infected tibiae were removed, dissected free of soft tissue, and weighed. The bones were ground using a metal ball mill, resuspended in 5 ml 0.9% NaCl, serially diluted and processed for quantitative cultures. For compounds 39, 44, 49, 54, 141, 145, 149, 1 ml of the 0.9% NaCl solution was added to 50 mg of charcoal before serial dilutions. Treatment efficacies were measured in terms of Log viable bacteria (Log CFU per gram of bone). The results obtained for each group of rats were evaluated by calculating the mean Log CFU and standard deviation. The limit of detection is 2 Log CFU/g of bone. Statistical comparisons of viable bacterial counts for the different treated and untreated groups were performed with Dunnett's multiple-comparison test. Differences were considered significant when the P value was <0.05 when comparing treated infected animals to the untreated infected ones.

SMILES: COc1c(N2C[C@@H]3CCCN(CC(P(=O)(OC)OC)P(=O)(OC)OC)[C@@H]3C2)c(F)cc2c(=O)c(C(=O)O)cn(C3CC3)c12 [Compound 4, 7-((4aS,7aS)-1-(2,2-bis(dimethylphosphono)ethyl)-octahydropyrrolo[3,4-b]pyridin-6-yl)-1-cyclopropyl-6-fluoro-1,4-dihydro-8-methoxy-4-oxoquinoline-3-carboxylic acid]
- cytotoxicity (Hela cells): no signs of any cytotoxicity

SMILES: COP(=O)(OC)C(CN1CCN(c2cc3c(cc2F)c(=O)c(C(=O)O)cn3C2CC2)CC1)P(=O)(OC)OC [Compound 7, 7-(4-(2,2-bis(dimethylphosphono)ethyl)piperazin-1-yl)-1-cyclopropyl-6-fluoro-1,4-dihydro-4-oxoquinoline-3-carboxylic acid]
- cytotoxicity (Hela cells): no signs of any cytotoxicity

SMILES: CCOP(=O)(OCC)C(NC(=O)COC(=O)c1cn(C2CC2)c2c(OC)c(N3CCN(C(=O)OC(C)(C)C)C(C)C3)c(F)cc2c1=O)P(=O)(OCC)OCC (centres unmarked) [Compound 53, (1,1-Bis(diethylphosphono)methylcarbamoyl)methyl 7-(4-(tert-butoxycarbonyl)-3-methylpiperazin-1-yl)-1-cyclopropyl-6-fluoro-1,4-dihydro-8-methoxy-4-oxoquinoline-3-carboxylate]
- cytotoxicity (Hela cells): no signs of any cytotoxicity

SMILES: COc1c(N2C[C@@H]3CCCN[C@@H]3C2)c(F)cc2c(=O)c(C(=O)OCC(=O)Nc3ccc(C(P(=O)(O)O)P(=O)(O)O)cc3)cn(C3CC3)c12 [Compound 73, (4-Bisphosphonomethylphenylcarbamoyl)methyl 1-cyclopropyl-6-fluoro-1,4-dihydro-7-((4aS,7aS)-octahydropyrrolo[3,4-b]pyridin-6-yl)-8-methoxy-4-oxoquinoline-3-carboxylate]
- Binding to bone (%) Fluorescence [1]: 99.0%
- effect of the medium (presence or absence of serum) on regeneration rate [2]: fairly similar rates

SMILES: COc1c(N2CCNC(C)C2)c(F)cc2c(=O)c(C(=O)OCC(=O)N(C)C(P(=O)(O)O)P(=O)(O)O)cn(C3CC3)c12 (centres unmarked) [Compound 82, (N-Methyl-1,1-Bisphosphonomethylcarbamoyl)methyl 7-(3-methylpiperazin-1-yl)-1-cyclopropyl-6-fluoro-1,4-dihydro-8-methoxy-4-oxoquinoline-3-carboxylate]
- Binding to bone (%) Fluorescence [1]: 90.4%
- effect of the medium (presence or absence of serum) on regeneration rate [2]: fairly similar rates

SMILES: COc1c(N2C[C@@H]3CCCN[C@@H]3C2)c(F)cc2c(=O)c(C(=O)Oc3ccc(C(P(=O)(O)O)P(=O)(O)O)cc3)cn(C3CC3)c12 [Compound 85, 4-(Bisphosphonomethyl)phenyl 1-cyclopropyl-6-fluoro-1,4-dihydro-7-((4aS,7aS)-octahydropyrrolo[3,4-b]pyridin-6-yl)-8-methoxy-4-oxoquinoline-3-carboxylate]
- Binding to bone (%) Fluorescence [1]: 98.9%
- effect of the medium (presence or absence of serum) on regeneration rate [2]: fairly similar rates

SMILES: COc1c(N2CCNC(C)C2)c(F)cc2c(=O)c(C(=O)Oc3ccc(C(P(=O)(O)O)P(=O)(O)O)cc3)cn(C3CC3)c12 (centres unmarked) [Compound 87, 4-(Bisphosphonomethyl)phenyl 7-(3-methylpiperazin-1-yl)-1-cyclopropyl-6-fluoro-1,4-dihydro-8-methoxy-4-oxoquinoline-3-carboxylate]
- Binding to bone (%) Fluorescence [1]: 79.2%
- effect of the medium (presence or absence of serum) on regeneration rate [2]: fairly similar rates

SMILES: CCCC(=O)Oc1ccc(P(=O)(O)CP(=O)(O)O)cc1C(C)(C)CC(=O)N1CCN(c2c(F)cc3c(=O)c(C(=O)O)cn(C4CC4)c3c2OC)CC1C (centres unmarked) [Compound 149, 7-(4-(3-(2-butyroxy-5-((phosphonomethyl)phosphonoyl)phenyl)-3-methylbutanoyl)-3-methylpiperazin-1-yl)-1-cyclopropyl-6-fluoro-1,4-dihydro-8-methoxy-4-oxoquinoline-3-carboxylic acid]
- Binding to bone (%) Fluorescence [1]: 89.6%
- binding to osseous matter, in words [1]: less effectively bound
- Measured bacterial titer (Log CFU/g of bone) Test compound (S. aureus ATCC 13709): 5.16 ± 0.72 Log CFU/g of bone
- prophylactic effect in rat model of bone infection, in words (S. aureus ATCC 13709): unable to produce a positive result in vivo

SMILES: COc1c(N2CCN(C(=O)CC(C)(C)c3cc(P(=O)(O)CP(=O)(O)O)ccc3OP(=O)(O)O)C(C)C2)c(F)cc2c(=O)c(C(=O)O)cn(C3CC3)c12 (centres unmarked) [Compound 153, 7-(4-(3-(2-phosphoryloxy-5-((phosphonomethyl)phosphonoyl)phenyl)-3-methylbutanoyl)-3-methylpiperazin-1-yl)-1-cyclopropyl-6-fluoro-1,4-dihydro-8-methoxy-4-oxoquinoline-3-carboxylic acid]
- Binding to bone (%) Fluorescence [1]: 0%
- binding to osseous matter, in words [1]: less effectively bound; also recorded: not bound at all
- Measured bacterial titer (Log CFU/g of bone) Test compound (S. aureus ATCC 13709): 4.08 ± 0.54 Log CFU/g of bone
- prophylactic effect in rat model of bone infection, in words (S. aureus ATCC 13709): unable to produce a positive result in vivo

SMILES: COC(=O)c1cn(C2CC2)c2c(OC)c(N3C[C@@H]4CCCN[C@@H]4C3)c(F)cc2c1=O [Compound 154, Methyl 1-cyclopropyl-6-fluoro-1,4-dihydro-7-((4aS,7aS)-octahydropyrrolo[3,4-b]pyridin-6-yl)-8-methoxy-4-oxoquinoline-3-carboxylate]
- cytotoxicity (Hela cells): no signs of any cytotoxicity
